# Source: patent EP0447703A1, “Hetero polycyclic biocidal compounds, their synthesis and intermediates therefor,formulations containing them and their use in medicine” (THE WELLCOME FOUNDATION LIMITED, priority 1990, dated 1991)
# Structures can show the parent of a compound that is named as a salt.
# Assays:
# P388/O tumour cells = assay: Lymphocytic Leukemia P388/0 Test; format: in vivo, CD2-F₁ mice; conditions: for 30-Day Survivors: at optimal dose, survivors per 6 animals of the dose group; for % T/C*: ratio of median survival time treated/control x 100 at optimal dose, excluding 30 day survivors, criterion for activity T/C x 100 ≧120%
# Excerpt: Methods for evaluating the antitumor activity of these compounds are essentially those used in the Tumour Panel by the Development Therapeutics Program, Division of Cancer Treatment, National Cancer Institute, A. Goldin et al., Methods in Cancer Research, Vol. XVI, p.165, Academic Press (1979). Some modifications, in dose level and schedule have been made to increase the testing efficiency.
# (§1) CD2-F₁ mice, of the same sex weighing within 20+3g, are used for this test. Control and test animals are injected intraperitoneally with a suspension of 10⁶ viable P388/O tumour cells on day 0. In each test several dose levels which bracket the LD₂₀ for the compound are evaluated; each dose level group contains 6 animals. The test compounds are prepared either in physiologic saline containing 0.05% Tween 80 or distilled water containing 5% dextrose and are administered intraperitoneally on days, 1, 5, and 9 relative to tumor implant. Doses are on a mg/kg basis according to individual animals' body weights. the day of death for each animal is recorded, the median identified for each group and the ratios of median survival time for treated (T)/control (C) groups are calculated. The criterion for activity is T/C x 100 ≧120%.
# [1] = LD20 determined in the P388/0 test; format: in vivo
# Description: as §1
# [2] = mice, intraperitoneally on days 1, 5 and 9
SMILES,30-Day Survivors (P388/O tumour cells),% T/C* (P388/O tumour cells) [%],"LD20 ([1]; mouse, in vivo, ip) [mg/kg]","LD20 [1, 2] [mg/kg]"
"Cn1c2ccccc2c2ccc3sc(CNC(C)(CO)CO)cc3c21 [Example 3B, 2-Methyl-2-(((10-methyl-10H-thieno(3,2-a)carbazol-2-yl)methyl)amino)-1,3-propanediol methanesulfonate]",0/6,195,375,–
"CC(CO)(CO)NCc1ccc2oc3cc4ccoc4cc3c2c1.Cl [Example 8H, 2(((Benzofuro(5,6-b)benzofuran-8-yl)methyl)amino)-2-methyl-1,3-propanediol Hydrochloride]",0/6,200,–,300
"Cl.Cn1cc(CNC(C)(CO)CO)c2ccc3oc4ccccc4c3c21 [Example 13E, 2-Methyl-2-(((1-methyl-1H-benzofuro[2,3-g]indole-3-yl)methyl)amino)-1,3-propanediol Hydrochloride]",0/6,120,–,115
"Cl.Cn1cc(CNC(C)(CO)CO)c2c3sc4ccccc4c3ccc21 [Example 14B, 2-Methyl-2-(((3-methyl-3H-[1]benzothieno[2,3-e]indol-1-yl)methyl)amino)-1,3-propanediol Hydrochloride]",0/6,215,–,150
"Cn1c2cccc(CNC(C)(CO)CO)c2c2sc3ccccc3c21 [Example 15D, 2-(((10-Methyl-10H-[1]benzothieno[3,2-b]indol-6-yl)methyl)amino)-2-methyl-1,3-propanediol Hydrochloride]",5/6,140,225,–
"CC(CO)(CO)NCc1ccc2oc3ccc4occc4c3c2c1.Cl [Example 5E, 2-(((Benzofuro(5,4-b)benzofuran-9-yl)methyl)amino)-2-methyl-1,3-propanediol Hydrochloride]",0/6,117,–,175
"Cl.Cn1c2ccccc2c2oc3c(CNC(C)(CO)CO)cccc3c21 [Example 1E, 2-Methyl-2-(((10-methyl-10H-benzofuro(3,2-b)indol-6-yl)methyl)amino)-1,3-propanediol Hydrochloride]",0/6,210,–,150
"CC(CO)(CO)NCc1ccc2c(c1)oc1ccc3occc3c12.Cl [Example 4M, 2(((Benzofuro(5,4-b)benzofuran-8-yl)methyl)amino)-2-methyl-1,3-propanediol Hydrochloride]",0/6,117,–,>450
"Cl.Cn1cc(CNC(C)(CO)CO)c2ccc3sc4ccccc4c3c21 [Example 11E, 2-Methyl-2-(((1-methyl-1H-[1]benzothieno[2,3]indol-3-yl)methyl)amino)-1,3-propanediol Hydrochloride]",0/6,135,–,250
"CC(CO)(CO)NCc1cc2cc3oc4ccccc4c3cc2o1.Cl [Example 10B, 2-(((Benzofuro(5,6-b)benzofuran-2-yl)methyl)amino)-2-methyl-1,3-propanediol Hydrochloride]",0/6,100,–,>675
"CC(CO)(CO)NCc1cc2oc3ccccc3c2c2ccoc12.Cl [Example 6E, 2-(((Benzofuro(5,4-b)benzofuran-4-yl)methyl)amino)-2-methyl-1,3-propanediol Hydrochloride]",1/6,213,–,60
"CC(CO)(CO)NCc1c2ccoc2cc2c1oc1ccccc12.Cl [Example 9E, 2-(((Benzofuro(5,6-b)benzofuran-4-yl)methyl)amino)-2-methyl 1,3-propanediol Hydrochloride]",0/6,192,–,75
"Cn1c2ccccc2c2sc3cc(CNC(C)(CO)CO)ccc3c21 [Example 16, 2-(((10-Methyl-10H-[1]benzothieno[3,2-b]indol-3-yl)methyl)amino)-2-methyl-1,3-propanediol hydrochloride]",0/6,170,250,–
"CC(CO)(CO)NCc1cc2c(ccc3oc4ccccc4c32)o1.Cl [Example 7B, 2-(((Benzofuro(5,4-b)benzofuran-2-yl)methyl)amino)-2-methyl-1,3-propanediol hydrochloride]",0/6,138,–,175
"Cn1c2ccccc2c2cc(CNC(C)(CO)CO)c3sccc3c21 [Example 2C, 2-Methyl-2-(((10-methyl-10H-thieno(3,2-a)carbazol-4-yl)methyl)amino)-1,3-propanediol methanesulfonate]",0/6,195,375,–
"CCn1c2ccccc2c2c3c(ccc21)c(CNC(C)(CO)CO)cn3C [Example 12C, 2-(((6-Ethyl-1,6-dihydro-1-methylpyrrolo[3,2-c]carbazol-3-yl)methyl)-amino)-2-methyl-1,3-propanediol Hydrochloride 0.6 H₂O]",0/6,113,100,–
